The NIST ThermoML archive (doi:10.1016/j.fluid.2005.03.028)
Numbers after ± are expanded uncertainties.

Test: excess molar enthalpy (molar enthalpy of mixing); xn = mol fraction of the nth substance listed
Details: 303.15 K, 101.3 kPa, Liquid

## Cc1cccc(C)n1 [2,6-dimethylpyridine] + CCCCCC
x1 = 0.1061
  excess molar enthalpy: 0.1 ± 0.0043 kcal/mol
x1 = 0.2206
  excess molar enthalpy: 0.171 ± 0.00598 kcal/mol
x1 = 0.2931
  excess molar enthalpy: 0.202 ± 0.00693 kcal/mol
x1 = 0.3822
  excess molar enthalpy: 0.215 ± 0.00741 kcal/mol
x1 = 0.4338
  excess molar enthalpy: 0.221 ± 0.00765 kcal/mol
x1 = 0.4341
  excess molar enthalpy: 0.22 ± 0.00765 kcal/mol
x1 = 0.4507
  excess molar enthalpy: 0.226 ± 0.00765 kcal/mol
x1 = 0.5516
  excess molar enthalpy: 0.223 ± 0.00765 kcal/mol
x1 = 0.6172
  excess molar enthalpy: 0.215 ± 0.00741 kcal/mol
x1 = 0.7034
  excess molar enthalpy: 0.191 ± 0.00669 kcal/mol
x1 = 0.7949
  excess molar enthalpy: 0.141 ± 0.00526 kcal/mol
x1 = 0.884
  excess molar enthalpy: 0.0844 ± 0.00382 kcal/mol

## Cc1cccc(C)n1 [2,6-dimethylpyridine] + CCCCCCC
x1 = 0.1137
  excess molar enthalpy: 0.114 ± 0.00454 kcal/mol
x1 = 0.1939
  excess molar enthalpy: 0.16 ± 0.00574 kcal/mol
x1 = 0.26
  excess molar enthalpy: 0.194 ± 0.00669 kcal/mol
x1 = 0.313
  excess molar enthalpy: 0.211 ± 0.00717 kcal/mol
x1 = 0.318
  excess molar enthalpy: 0.216 ± 0.00741 kcal/mol
x1 = 0.365
  excess molar enthalpy: 0.226 ± 0.00765 kcal/mol
x1 = 0.4264
  excess molar enthalpy: 0.237 ± 0.00813 kcal/mol
x1 = 0.46
  excess molar enthalpy: 0.241 ± 0.00813 kcal/mol
x1 = 0.5077
  excess molar enthalpy: 0.242 ± 0.00813 kcal/mol
x1 = 0.58
  excess molar enthalpy: 0.227 ± 0.00789 kcal/mol
x1 = 0.7064
  excess molar enthalpy: 0.202 ± 0.00693 kcal/mol
x1 = 0.7851
  excess molar enthalpy: 0.165 ± 0.00598 kcal/mol
x1 = 0.857
  excess molar enthalpy: 0.123 ± 0.00478 kcal/mol

## Cc1cccc(C)n1 [2,6-dimethylpyridine] + CCCCCCCC
x1 = 0.108
  excess molar enthalpy: 0.12 ± 0.00478 kcal/mol
x1 = 0.199
  excess molar enthalpy: 0.172 ± 0.00621 kcal/mol
x1 = 0.202
  excess molar enthalpy: 0.182 ± 0.00645 kcal/mol
x1 = 0.346
  excess molar enthalpy: 0.233 ± 0.00789 kcal/mol
x1 = 0.413
  excess molar enthalpy: 0.246 ± 0.00837 kcal/mol
x1 = 0.506
  excess molar enthalpy: 0.251 ± 0.0086 kcal/mol
x1 = 0.597
  excess molar enthalpy: 0.246 ± 0.00837 kcal/mol
x1 = 0.698
  excess molar enthalpy: 0.217 ± 0.00741 kcal/mol
x1 = 0.708
  excess molar enthalpy: 0.208 ± 0.00717 kcal/mol

## Cc1cncc(C)c1 [3,5-dimethylpyridine] + CCCCCC
x1 = 0.1064
  excess molar enthalpy: 0.137 ± 0.00526 kcal/mol
x1 = 0.1889
  excess molar enthalpy: 0.201 ± 0.00693 kcal/mol
x1 = 0.314
  excess molar enthalpy: 0.259 ± 0.00884 kcal/mol
x1 = 0.434
  excess molar enthalpy: 0.275 ± 0.00932 kcal/mol
x1 = 0.5119
  excess molar enthalpy: 0.278 ± 0.00932 kcal/mol
x1 = 0.6092
  excess molar enthalpy: 0.26 ± 0.00884 kcal/mol
x1 = 0.7259
  excess molar enthalpy: 0.214 ± 0.00741 kcal/mol
x1 = 0.775
  excess molar enthalpy: 0.191 ± 0.00669 kcal/mol
x1 = 0.8934
  excess molar enthalpy: 0.0978 ± 0.0043 kcal/mol
x1 = 0.9495
  excess molar enthalpy: 0.0492 ± 0.00311 kcal/mol

## Cc1cncc(C)c1 [3,5-dimethylpyridine] + CCCCCCC
x1 = 0.0712
  excess molar enthalpy: 0.0951 ± 0.00406 kcal/mol
x1 = 0.2287
  excess molar enthalpy: 0.217 ± 0.00741 kcal/mol
x1 = 0.2961
  excess molar enthalpy: 0.258 ± 0.00884 kcal/mol
x1 = 0.3799
  excess molar enthalpy: 0.281 ± 0.00956 kcal/mol
x1 = 0.4475
  excess molar enthalpy: 0.296 ± 0.01 kcal/mol
x1 = 0.497
  excess molar enthalpy: 0.293 ± 0.0098 kcal/mol
x1 = 0.5013
  excess molar enthalpy: 0.294 ± 0.0098 kcal/mol
x1 = 0.5962
  excess molar enthalpy: 0.283 ± 0.00956 kcal/mol
x1 = 0.6871
  excess molar enthalpy: 0.249 ± 0.00837 kcal/mol
x1 = 0.7428
  excess molar enthalpy: 0.219 ± 0.00741 kcal/mol
x1 = 0.85
  excess molar enthalpy: 0.137 ± 0.00526 kcal/mol

## Cc1cncc(C)c1 [3,5-dimethylpyridine] + CCCCCCCC
x1 = 0.1056
  excess molar enthalpy: 0.133 ± 0.00502 kcal/mol
x1 = 0.2504
  excess molar enthalpy: 0.24 ± 0.00813 kcal/mol
x1 = 0.3971
  excess molar enthalpy: 0.294 ± 0.0098 kcal/mol
x1 = 0.4266
  excess molar enthalpy: 0.301 ± 0.01 kcal/mol
x1 = 0.4971
  excess molar enthalpy: 0.304 ± 0.0103 kcal/mol
x1 = 0.5313
  excess molar enthalpy: 0.305 ± 0.0103 kcal/mol
x1 = 0.5417
  excess molar enthalpy: 0.303 ± 0.01 kcal/mol
x1 = 0.6032
  excess molar enthalpy: 0.293 ± 0.0098 kcal/mol
x1 = 0.7289
  excess molar enthalpy: 0.237 ± 0.00813 kcal/mol
x1 = 0.8127
  excess molar enthalpy: 0.184 ± 0.00645 kcal/mol
x1 = 0.914
  excess molar enthalpy: 0.0915 ± 0.00406 kcal/mol
